Source: patent US20040198743A1 (Schering Corporation, priority 2003, published 2004)
Where “and” joins values, the source holds several entries; their conditions need not be identical. Equal entries are not always repeated.

Tests used:
[1] = target: T1, Histamine Receptor H3 (Homo sapiens, UniProt Q9Y5N1); assay: Membrane binding assay, [3H]-N'-methylhistamine for H3 binding
T1 construct: expressed in transfected cells; host or cells: HEK293
Protocol: (§1) Materials. Rat and guinea-pig brains were obtained frozen from Rockland Immunochemicals (Gilbertsville, Pa.). Cell lines expressing recombinant human receptors were generated by using standard transfection techniques. The following radioligands were obtained from Dupont NEN (Boston, Mass.): [^3H]-pyrilamine, 23 Ci/mmol for H 1 binding and [^3H]-N′-methylhistamine, 82 Ci/mmol for H3 binding.
(§2) Methods. Recombinant cell lines (i.e., human H1—CHO cells and human H3-HEK293) were cultured in Dulbecco's modified Eagle's medium/10% fetal bovine serum supplemented with 2 mM glutamine, penicillin (100 U/ml), and streptomycin (100 μg/ml) in a humidified 5% CO2 atmosphere at 37° C. Selection was maintained with 0.5 mg geneticin/ml. Cells were harvested for membrane preparation by aspirating media, replacing it with Hanks' balanced salt solution/5 mM EDTA, and incubating flasks for 10 minutes at 37° C. Cells were pelleted by centrifugation at 1000×g for ten minutes at 4° C.
(§3) Membrane preparation. Membranes were prepared by disrupting cells or tissue in at least ten volumes of ice-cold 50 mM Tris-HCl, pH 7.5 at 25° C., with a Polytron. Homogenates were centrifuged ten minutes at 1000×g and the supernatants were then centrifuged for ten minutes at 50,000×g. Pellets from this centrifugation step were resuspended with a Polytron, a sample was taken for protein determination (BCA; Pierce; Rockford, Ill.), and the resuspension was again centrifuged at 50,000×g. Brain membranes were stored as pellets, cell membranes as suspensions of 1 mg protein/ml Tris buffer at −20° C.
(§4) Binding assays. […] Nonspecific binding was determined in the presence of 10^−6 M chlorpheniramine for H1 binding or 10^−6 M clobenpropit for H3 binding. Assay mixtures were incubated for 30 minutes at 30° C. in polypropylene, 96-well, deep-well plates then filtered through 0.3% polyethylenimine-soaked GF/B filters. These were washed three times with 1.2 ml of Tris buffer, dried in a microwave oven, impregnated with Meltilex wax scintillant and counted at 40% efficiency in a Betaplate scintillation counter (Wallac). IC50 values were determined by interpolation or by nonlinear, least-squares, curve-fitting with the Prism program (GraphPad Software). Ki values were determined in the manner of Cheng and prusoff (Cheng, et al., (1973) Biochem. Pharm. 22:3099-3108).

[2] = target: T2, Histamine Receptor H1 (Homo sapiens, UniProt P35367); assay: Membrane binding assay, [3H]-pyrilamine for H1 binding
T2 construct: expressed in transfected cells; host or cells: CHO
T2 sequence (P35367 whole entry): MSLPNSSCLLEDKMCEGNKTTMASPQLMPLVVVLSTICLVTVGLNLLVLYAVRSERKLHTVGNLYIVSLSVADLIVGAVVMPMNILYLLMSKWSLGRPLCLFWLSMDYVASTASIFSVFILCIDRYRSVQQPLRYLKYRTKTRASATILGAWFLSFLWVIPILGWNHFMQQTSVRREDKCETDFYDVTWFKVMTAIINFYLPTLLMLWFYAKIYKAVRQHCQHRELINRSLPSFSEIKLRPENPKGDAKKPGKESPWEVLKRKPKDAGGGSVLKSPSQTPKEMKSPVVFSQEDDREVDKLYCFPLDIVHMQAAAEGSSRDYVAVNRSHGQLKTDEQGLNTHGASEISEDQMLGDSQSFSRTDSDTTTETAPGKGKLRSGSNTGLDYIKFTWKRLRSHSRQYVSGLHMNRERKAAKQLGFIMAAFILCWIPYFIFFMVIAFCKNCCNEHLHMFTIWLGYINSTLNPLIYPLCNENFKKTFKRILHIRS
Protocol: as §1, §2, §3, §4

[3] = tested on: cutaneous microvascular permeability produced by compound 48/80; assay: Cutaneous microvascular permeability (Evans blue extravasation) elicited by intradermal compound 48/80; type: in vivo, guinea pig; conditions: for effect on baseline Evans blue leakage (dye leakage due to i.d. saline administration): CTM 1.0 mg/kg, THIO 1.0 mg/kg, CLOB 0.3 mg/kg, i.v.; for % Inhibition of Compound 48/80 Skin Responses: treatment i.v. 10 minutes before, each drug 1 mg/kg in Table 3, mean ± SEM; for effect of H3 antagonist alone on cutaneous permeability elicited by compound 48/80: THIO 1.0 mg/kg i.v., CLOB 0.3 mg/kg i.v., given alone

T1 sequence (Q9Y5N1 whole entry): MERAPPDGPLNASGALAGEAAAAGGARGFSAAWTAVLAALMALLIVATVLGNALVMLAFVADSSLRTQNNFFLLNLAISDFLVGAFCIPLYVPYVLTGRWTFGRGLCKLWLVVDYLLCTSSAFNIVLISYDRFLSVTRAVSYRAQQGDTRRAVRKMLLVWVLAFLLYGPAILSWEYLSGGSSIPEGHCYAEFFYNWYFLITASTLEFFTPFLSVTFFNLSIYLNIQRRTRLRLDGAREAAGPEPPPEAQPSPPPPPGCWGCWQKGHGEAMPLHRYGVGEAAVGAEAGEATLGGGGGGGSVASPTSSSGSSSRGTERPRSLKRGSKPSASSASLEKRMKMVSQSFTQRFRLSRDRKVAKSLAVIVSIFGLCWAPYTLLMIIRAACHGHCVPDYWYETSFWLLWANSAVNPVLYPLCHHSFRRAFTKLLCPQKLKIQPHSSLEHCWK

Structure (SMILES): C/C(=C\C(=O)Nc1ccc(Cl)cc1)c1ccc(Cc2c[nH]cn2)cc1 [Formula 31]
- Ki [1]: 470 nM

Structure (SMILES): Clc1ccc(C(=C2CCN(CCCCc3c[nH]cn3)CC2)c2ccccn2)cc1 [Formula 26]
- Ki [1]: 3 nM
- Ki [2]: 2 nM

Structure (SMILES): CN(C)CCC(c1ccc(Cl)cc1)c1ccccn1 (stereo not shown) [CTM, chlorpheniramine]
- effect on baseline Evans blue leakage (dye leakage due to i.d. saline administration) [3]: Neither CTM (1.0 mg/kg, i.v.), THIO (1.0 mg/kg, i.v.) nor CLOB (0.3 mg/kg, i.v.) had any effect
- % Inhibition of Compound 48/80 Skin Responses ([3]; cpd 48/80 0.0003% i.d.): 17%±4% and 17.3 ± 3.6%
- % Inhibition of Compound 48/80 Skin Responses ([3]; cpd 48/80 0.001% i.d.): 31%±4% and 31.5 ± 3.7 %
- % Inhibition of Compound 48/80 Skin Responses ([3]; cpd 48/80 0.003% i.d.): 32%±4% and 31.8 ± 3.8 %
- % Inhibition of Compound 48/80 Skin Responses ([3]; cpd 48/80 0.01% i.d.): 37%±4% and 36.7 ± 3.8 %

Structure (SMILES): O=C(NCCCCc1c[nH]cn1)C1(c2ccc(Cl)cc2)CCC1 [Formula 32]
- Ki [1]: 19 nM

Structure (SMILES): Clc1ccc(C(CCNCCCCc2c[nH]cn2)c2ccccn2)cc1 (stereo not shown) [Formula 28]
- Ki [1]: 10 nM
- Ki [2]: 310 nM

Structure (SMILES): O=C(CCN1CCC(Cc2c[nH]cn2)CC1)NCCc1ccc(Cl)cc1 [Formula 23]
- Ki [1]: 0.7 nM

Structure (SMILES): O=C(NCc1ccc(Cc2c[nH]cn2)cc1)Nc1cc(Cl)cc(Cl)c1 [Formula 24]
- Ki [1]: 15 nM

Structure (SMILES): Clc1ccc(C(=C2CCN(CCCCCc3c[nH]cn3)CC2)c2ccccn2)cc1 [Formula 29]
- Ki [1]: 8 nM
- Ki [2]: 5 nM

Structure (SMILES): O=S(=O)(c1ccc(Cl)cc1)N1CCC(CCc2c[nH]cn2)C1 (stereo not shown) [Formula 21]
- Ki [1]: 6 nM
- Ki [2]: 660 nM

Structure (SMILES): O=C(CCN1CCC(Cc2c[nH]cn2)CC1)Nc1cccc(Cl)c1 [Formula 20]
- Ki [1]: 0.8 nM
- Ki [2]: 330 nM

Structure (SMILES): O=C(/C=C/c1ccc(Cc2c[nH]cn2)cc1)NCCc1ccc(Cl)cc1 [Formula 33]
- Ki [1]: 7 nM

Structure (SMILES): NC(=NCc1ccc(Cl)cc1)SCCCc1cnc[nH]1 [Clobenpropit, clobenpropit]
- effect on baseline Evans blue leakage (dye leakage due to i.d. saline administration) [3]: Neither CTM (1.0 mg/kg, i.v.), THIO (1.0 mg/kg, i.v.) nor CLOB (0.3 mg/kg, i.v.) had any effect
- effect of H3 antagonist alone on cutaneous permeability elicited by compound 48/80 ([3]; listed as CLOB): no observable effect
- effect of H3 antagonist alone on cutaneous permeability elicited by compound 48/80 ([3]; listed as clobenpropit): does not alter

Structure (SMILES): c1ccc2c(c1)C1CC(CNCCCCc3c[nH]cn3)C2c2ccccc21 (stereo not shown) [Formula 27]
- Ki [1]: 19 nM

Structure (SMILES): c1nc(CC2CCN(CCCOc3ccc(CN4CCCCC4)cc3)CC2)c[nH]1 [Formula 22]
- Ki [1]: 3 nM
- Ki [2]: 29 nM

Structure (SMILES): CN1CCC(N(C)Cc2ccc(OCCCN3CCC(Cc4c[nH]cn4)CC3)cc2)CC1 [Formula 25]
- Ki [1]: 4 nM

Structure (SMILES): CC(C)(C)c1ccc(S(=O)(=O)NCCCCc2c[nH]cn2)cc1 [Formula 30]
- Ki [1]: 17 nM

Structure (SMILES): S=C(NC1CCCCC1)N1CCC(c2cnc[nH]2)CC1 [Thioperamide, thioperamide]
- effect on baseline Evans blue leakage (dye leakage due to i.d. saline administration) [3]: Neither CTM (1.0 mg/kg, i.v.), THIO (1.0 mg/kg, i.v.) nor CLOB (0.3 mg/kg, i.v.) had any effect
- effect of H3 antagonist alone on cutaneous permeability elicited by compound 48/80 ([3]; listed as THIO): no observable effect
- effect of H3 antagonist alone on cutaneous permeability elicited by compound 48/80 ([3]; listed as thioperamide): does not alter

Structure (SMILES): O=C(c1cnc2ccccc2c1)N1CCC(Cc2c[nH]cn2)CC1 [Formula 17]
- Ki [1]: 55 nM

Structure (SMILES): CC(C)(C)CCC#C[C@@H]1C[C@H]1c1c[nH]cn1 [Formula 19]
- Ki [1]: 3 nM

Structure (SMILES): O=C(c1ccccn1)N1CCC(Cc2c[nH]cn2)CC1 [Formula 18]
- Ki [1]: 2 nM
